What all share (type): biochemical
For one experiment, the target named is aXa (Homo sapiens, UniProt P00742). Briefly: aXa-activity, chromogenic substrate s2222. The conditions noted are these: measured after 90 minutes, expressed as molar concentration. As for the experimental part:
(§1) The inhibition of human thrombin was investigated by continuously monitoring the splitting of the chromogenic substance S 2238 (N-D-Phe-L-pipecolyl-L-Arg-p-nitro-anilide 2 HCl) in the absence and in the presence of 3, 1, 0.3, 0.1 and 0.03 mM of the compound investigated. These measurements were performed with the help of a kinetic microtiter plate reader. From these measurements the end absorbances were calculated after 90 minutes. Based on these total scores, an IC50 of the various compounds investigated is expressed as the molar concentration which inhibited the end absorbance by 50%. IC50 values for aXa-activity were investigated in the same way by using the chromogenic substrate s2222 (N-benzoyl-Ile-Glu-(OCH3)Gly-Arg-pNa).

The target of the next experiment is human thrombin (Homo sapiens, UniProt P00734). Kind of experiment: Inhibition of human thrombin (aIIa), splitting of chromogenic substrate S 2238. The conditions noted are these: measured after 90 minutes, expressed as the molar concentration which inhibited the end absorbance by 50%. As for the experimental part: as §1
For another experiment, the target named is T1, Factor IIa (Homo sapiens, UniProt P00734).
T1 construct: Ki [M]-Factor IIa
Briefly: Ki against Factor IIa. The conditions noted are these: called minimum inhibitory concentrations.

Residues, ends and D or L forms follow the SMILES beside them.

Chain of aXa (P00742 41-179 limits assumed): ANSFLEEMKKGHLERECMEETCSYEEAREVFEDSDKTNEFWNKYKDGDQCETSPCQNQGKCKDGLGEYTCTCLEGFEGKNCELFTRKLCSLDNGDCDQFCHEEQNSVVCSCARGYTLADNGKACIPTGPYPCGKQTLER
Chain of aXa (P00742 235-488 limits assumed): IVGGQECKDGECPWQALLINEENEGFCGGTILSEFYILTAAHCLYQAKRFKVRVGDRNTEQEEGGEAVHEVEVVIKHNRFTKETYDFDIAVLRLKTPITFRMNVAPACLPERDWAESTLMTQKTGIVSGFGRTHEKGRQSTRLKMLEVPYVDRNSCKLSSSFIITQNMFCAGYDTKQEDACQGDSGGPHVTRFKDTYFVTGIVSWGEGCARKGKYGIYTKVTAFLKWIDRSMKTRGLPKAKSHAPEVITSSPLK

In general, IC50 refers to the concentration at which inhibition is half-maximal. Regarding `C[C@H](NC(=O)[C@H](CCCNC(=N)N)NC(=O)[C@@H]1CCCN1C(=O)[C@H](N)Cc1ccccc1)C(=O)N[C@@H](Cc1ccccc1)C(=O)N[C@@H](CCCCN)C(=O)O` [H-D-Phe-Pro-Arg-Ala-Phe-Lys-OH] (HELM PEPTIDE1{[dF].P.R.A.F.K}$$$$V2.0), the IC50 against aXa was found to be 3100 µM; at human thrombin, 110 µM.

What is called Ki is the equilibrium dissociation constant of an inhibitor or competing ligand from its target. A low value points to a stronger hold on the target. Turning to `N=C(N)NCCC[C@H](NC(=O)[C@@H]1CCCN1C(=O)[C@H](N)Cc1ccccc1)C(=O)NCC(=O)O` [H-D-Phe-Pro-Arg-Gly-OH, reference compound] (HELM PEPTIDE1{[dF].P.R.G}$$$$V2.0), the affinity on Factor IIa, expressed as Ki, was 70 µM. Also, the IC50 was 4800 µM on aXa and 4000 µM against human thrombin.

On Factor IIa, `N=C(N)NCCC[C@H](NC(=O)[C@@H]1CCCN1C(=O)[C@H](N)Cc1ccccc1)C(=O)NCC(=O)N[C@@H](Cc1ccccc1)C(=O)N[C@@H](CCCCN)C(=O)O` [H-D-Phe-Pro-Arg-Gly-Phe-Lys-OH] (HELM PEPTIDE1{[dF].P.R.G.F.K}$$$$V2.0) registered an inhibition constant Ki of 3.4 µM. Besides, the IC50 at aXa was 1600 µM; at human thrombin, 250 µM.

Turning to `N=C(N)NCCC[C@H](NC(=O)[C@@H]1CCCN1C(=O)[C@H](N)Cc1ccccc1)C(=O)NCC(=O)N[C@@H](Cc1ccccc1)C(=O)O` [H-D-Phe-Pro-Arg-Gly-Phe-OH] (HELM PEPTIDE1{[dF].P.R.G.F}$$$$V2.0), the Ki at Factor IIa was 7.6 µM. The values for the IC50 against aXa and on human thrombin were 1300 µM and 410 µM, respectively.

At Factor IIa, `N=C(N)NCCC[C@H](NC(=O)[C@@H]1CCCN1C(=O)[C@H](N)Cc1ccccc1)C(=O)CCC(=O)O` [H-D-Phe-Pro-Arg-psi[COCH2 ]-Gly-OH] showed a Ki of 26 µM.

As to `NCCCC[C@H](NC(=O)[C@H](Cc1ccccc1)NC(=O)CCC(=O)[C@H](CCCN=C(N)N)NC(=O)[C@@H]1CCCN1C(=O)[C@H](N)Cc1ccccc1)C(=O)O` [H-D-Phe-Pro-Arg-psi[COCH2 ]-Gly-Phe-Lys-OH] (HELM PEPTIDE1{[dF].P.[N=C(N)NCCC[C@H](N[*:1])C(=O)CCC(=O)[*:2]].F.K}$$$$V2.0), the Ki on Factor IIa was 0.028 µM.

At Factor IIa, `N=C(N)NCCC[C@H](NC(=O)[C@@H]1CCCN1C(=O)[C@H](N)Cc1ccccc1)C(=O)CCC(=O)N[C@@H](Cc1ccccc1)C(=O)O` [H-D-Phe-Pro-Arg-psi[COCH2 ]-Gly-Phe-OH] registered a Ki of 0.48 µM. The IC50 against aXa is 2100 µM; at human thrombin, 37 µM.

Values taken from patent publication US5719128A, “Factor IIa inhibitors” (Akzo Nobel N.V., priority 1991, dated 1998).
